The series has as its system Klebsiella pneumoniae ATCC BAA-1705. The conditions noted are these: for Avg. Log CFU/g thigh: BID; for decrease in CFU number in thighs in comparison to the vehicle control group: doses of 16 and 64 mg/kg (SC, BID). The procedure: 4.2 Murine Neutropenic Thigh Model of Infection (Kiebsiella Pneumoniae ATCC BAA-1705)
All animal-related research is conducted in accordance with 2010/63/EU and National legislation regulating the use of laboratory animals in scientific research and for other purposes (Official Gazette 55/13).
In vivo studies and CFU determination were performed by Fidelta (Zagreb, Croatia) and all mice were obtained from Charles River Laboratories (Italy).
Two compounds, i.e. ABX5006 and ABX5020, and a comparator antibiotic (amikacin sulfate; Cat. No. 01693, Chem-Impex) were tested in a mouse model of thigh infection with Klebsiella pneumoniae ATCC BAA-1705.
Neutropenic thigh model: Pathogen-free male CD-1 mice (6 mice per dosing group) weighing 36±4 g were used. Prior to infection, neutropenia was induced in mice by two cyclophosphamide doses applied intraperitoneally four days (150 mg/kg body weight) and one day prior to infection (100 mg/kg body weight). […] For subcutaneous treatment, pre-weighed test item powder (ABX5006) was dissolved in PBS and the pH was adjusted (to reach a near-neutral pH), to reach a final concentration of 6.4 mg/mL for a dose of 64 mg/kg (group 3) or 1.6 mg/mL for a dose of 16 mg/kg (group 2). For subcutaneous treatment, pre-weighed test item powder (ABX5020) was dissolved in PBS and the pH was adjusted (to reach a near-neutral pH), to reach a final concentration of 6.4 mg/mL for a dose of 64 mg/kg (group 7) or 1.6 mg/mL for a dose of 16 mg/kg (group 6). For subcutaneous treatment, pre-weighed reference compound (amikacin sulfate) was dissolved in PBS and the pH was adjusted (to reach a near-neutral pH), to reach a final concentration of 6.4 mg/mL for a dose of 64 mg/kg (group 5) or 1.6 mg/mL for a dose of 16 mg/kg (group 4). Each mouse was infected with Klebsiella pneumoniae ATCC BAA-1705 (1.18×10^6/thigh), under light ketamine/xylazine anesthesia, by intramuscular administration of 0.10 mL of a suspension containing bacteria into both thighs. Animals were dosed subcutaneously twice with 8 h interval. Treatment was started 1 h following infection either with Vehicle—PBS (group 1) or amikacin sulfate (groups 4-5) or test compounds (groups 2-3 and 6-7) as described above. All Mice were overdosed with ketamine/xylazine 24 hours post infection. Thighs were aseptically removed and separately placed into sterile Precellys test tubes containing 2 mL of sterile PBS. Precellys test tubes were weighed and the weight was recorded prior and post-sampling. Each thigh was homogenized in sterile PBS using Ultraturax, IKA. After homogenizing, a serial dilution of the homogenates was used for CFU determination. A CFU count of each thigh acted as a single result.
Supplies/Chemicals. BBL™ Mueller Hinton Broth (REF 275730, Becton Dickinson); BBL™ Mueller Hinton Agar 2 (REF 211438, Becton Dickinson); PBS (Cat. No. P4417, Sigma); Saline (Serial No. 1422115, HZ™); Xylazine 2% (Alfasan, International B.V.); Narkamon (100 mg/mL ketamine chloride, Bioveta); Cyclophosphamide monohydrate (No. C2236, TCI); Sterile, single use needles (BD MICROLANCE Kanuele, 27 G, REF 300220, Becton Dickinson); 5 mL syringes (BD Plastipak, REF 300013, Becton Dickinson).
Anesthesia. 1 mL of Narkamon, 0.2 mL of Xylazine and 9 mL of saline; Dose volume: 10 mL/kg body weight.
Inoculum preparation for intramuscular infection. The strain was streaked out onto MH agar. On the following day Mueller-Hinton broth was inoculated with several colonies of Klebsiella pneumoniae and incubated at 37° C. in an orbital shaker until log phase of growth was reached (OD600=0.6). Log bacteria was centrifuged and suspended in equal volume of sterile PBS and subsequently diluted to obtain a bacterial suspension of adequate inoculum size.

Where two headings read alike, the source gives them in different places.

On to `N=C(N)NC1C(O)[C@@H](CO)OC(OC2C(F)[C@H](O[C@H]3OC(CN)[C@@H](O)CC3N)C(N)C[C@H]2NC(=O)[C@@H](O)CCN)[C@@H]1O` (stereo partly shown) [ABX5006, Tobra-AHB-F-Gua], for which the “decrease in CFU number in thighs in comparison to the vehicle control group” value (“decrease in CFU number in thighs” for short) is 2.8-3.2 log 10. The “Avg. Log CFU/g thigh” value (dose 16 mg/kg, SC) is listed as 6.08 Log CFU/g. The “Avg. Log CFU/g thigh” value (dose 64 mg/kg, SC) amounted to 5.69 Log CFU/g.

For `N=C(NCCN)NC1C(O)[C@@H](CO)OC(OC2C(F)[C@H](O[C@H]3OC(CN)[C@@H](O)CC3N)C(N)C[C@H]2NC(=O)[C@@H](O)CCN)[C@@H]1O` (stereo partly shown) [ABX5020, Tobra-AHB-F-Gua-2-amino-ethyl], the “decrease in CFU number in thighs” value was 2.7-3.6 log 10. Besides, the “Avg. Log CFU/g thigh” value (dose 16 mg/kg, SC) is listed as 6.18 Log CFU/g. Further, the “Avg. Log CFU/g thigh” value (dose 64 mg/kg, SC) is 5.29 Log CFU/g. In addition, where the note is “infected neutropenic mice, SC”, the “animals euthanized prior to second dose due to weak clinical condition” value is “Two animals”.

For `NCC[C@H](O)C(=O)N[C@@H]1C[C@H](N)[C@@H](O[C@H]2O[C@H](CN)[C@@H](O)[C@H](O)[C@H]2O)[C@H](O)[C@H]1O[C@H]1O[C@H](CO)[C@@H](O)[C@H](N)[C@H]1O` [Amikacin, amikacin, reference compound], the “decrease in CFU number in thighs” value is on record as “did not significantly decrease CFU counts in thighs”. For the same compound, the “Avg. Log CFU/g thigh” value (dose 16 mg/kg, SC) came to 8.19 Log CFU/g. Also, the “Avg. Log CFU/g thigh” value (dose 64 mg/kg, SC) came to 7.24 Log CFU/g.

The values above are taken from patent publication US20220127297A1, “Novel Antibacterial 3"-Derivatives Of 4,6-Disubstituted 2,5-Dideoxystreptamine Aminoglycoside Antibiotics” (AGILeBiotics B.V., priority 2018, published 2022).
